Source: patent US10258602B2 (Ocera Therapeutics, Inc., priority 2007, dated 2019)
Like-named read-outs stand apart in the source and are kept apart here.

Legend:
human plasma = conditions: reference controls; cited from earlier work
[1] = target: human growth hormone secretagogue receptor (hGHS-R1a) (Homo sapiens, UniProt Q92847); test: Competitive radioligand binding assay (ghrelin receptor), standard method A; conditions: binding activity at the human ghrelin receptor, standard method A
CYP1A2 = target: T1, CYP1A2 (Homo sapiens, UniProt P05177); test: Cytochrome P450 inhibition, CYP1A2; format: in vitro ADME; conditions: read-out: IC50 1A2
T1 construct: purchased BD Gentest, Becton-Dickinson (Supersomes); host or cells: insect cells
T1 sequence (P05177 1-516): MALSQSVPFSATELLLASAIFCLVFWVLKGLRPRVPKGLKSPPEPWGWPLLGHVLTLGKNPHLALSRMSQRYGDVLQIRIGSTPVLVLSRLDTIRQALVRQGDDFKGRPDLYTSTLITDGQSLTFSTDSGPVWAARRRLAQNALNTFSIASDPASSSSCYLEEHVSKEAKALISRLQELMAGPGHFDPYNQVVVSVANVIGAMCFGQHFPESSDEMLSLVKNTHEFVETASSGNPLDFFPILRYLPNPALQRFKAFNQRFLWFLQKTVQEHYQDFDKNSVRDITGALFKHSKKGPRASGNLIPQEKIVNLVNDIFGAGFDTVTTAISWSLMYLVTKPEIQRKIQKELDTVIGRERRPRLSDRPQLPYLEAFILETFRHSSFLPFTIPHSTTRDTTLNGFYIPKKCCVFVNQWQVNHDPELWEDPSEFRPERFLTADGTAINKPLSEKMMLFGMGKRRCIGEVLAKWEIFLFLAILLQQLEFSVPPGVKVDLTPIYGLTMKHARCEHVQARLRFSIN
Source text: (§1) K. Assay for Cytochrome P450 Inhibition
(§2) Cytochrome P450 enzymes are implicated in the phase I metabolism of drugs. The majority of drug-drug interactions are metabolism-based and, moreover, these interactions typically involve inhibition of cytochrome P450s. Six CYP450 enzymes (CYP1A2, CYP2C8, CYP2C9, CYP2C19, CYP2D6 and CYP3A4) appear to be commonly responsible for the metabolism of most drugs and the associated drug-drug interactions. Assays to determine the binding of compounds of the invention to the various metabolically important isoforms of cytochrome P450 metabolizing enzymes are commercially available, for example NoAb BioDiscoveries (Mississaugua, ON, Canada) and Absorption Systems (Exton, Pa., USA). As well, a number of appropriate methods have been described or reviewed in the literature. (White, R. E. Ann. Rev. Pharmacol. Toxicol. 2000, 40, 133-157; Li, A. P. Drug. Disc. Today 2001, 6, 357-366; Turpeinen, M.; Korhonen, L. E. Tolonen, A.; et al. Eur. J. Pharm. Sci, 2006, 29, 130-138.)
(§3) The key aspects of the experimental method were as follows: • 1. […] Assays monitored, via fluorescence detection, the formation of a fluorescent metabolite following incubation of the microsomes with a specific CYP substrate. • 3. Compounds of the present invention were tested in duplicate samples at eight test concentrations using 3-fold serial dilutions (concentration range of 0.0457 to 100 μM). • 4. For each CYP-450 enzyme, a specific inhibitor was tested in duplicate at eight concentrations as a positive control. • 5. The concentration of the inhibitor or test compound that inhibited metabolite formation by 50% (IC50) was calculated by non-linear regression analysis of the % inhibition vs. log concentration (M) curve.

CYP2A6 = target: T2, CYP2A6 (Homo sapiens, UniProt P11509); test: Cytochrome P450 inhibition, CYP2A6; format: in vitro ADME; conditions: read-out: IC50 2A6
T2 construct: purchased BD Gentest, Becton-Dickinson (Supersomes); host or cells: insect cells
T2 sequence (P11509 1-494): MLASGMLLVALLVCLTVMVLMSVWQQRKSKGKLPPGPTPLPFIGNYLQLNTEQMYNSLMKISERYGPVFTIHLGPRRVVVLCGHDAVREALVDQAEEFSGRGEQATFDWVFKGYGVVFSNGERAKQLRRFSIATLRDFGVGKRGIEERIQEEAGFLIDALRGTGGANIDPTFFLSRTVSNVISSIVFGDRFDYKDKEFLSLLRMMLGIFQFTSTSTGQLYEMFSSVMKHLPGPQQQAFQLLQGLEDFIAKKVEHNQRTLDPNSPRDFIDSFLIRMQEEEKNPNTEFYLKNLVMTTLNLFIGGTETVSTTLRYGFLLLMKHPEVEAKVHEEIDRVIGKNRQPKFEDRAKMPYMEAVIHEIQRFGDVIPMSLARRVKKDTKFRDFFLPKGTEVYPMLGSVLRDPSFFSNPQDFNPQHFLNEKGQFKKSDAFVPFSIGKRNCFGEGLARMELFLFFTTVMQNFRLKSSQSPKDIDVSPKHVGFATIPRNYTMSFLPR
Source text: as §1, §2, §3

CYP2B6 = target: T3, CYP2B6 (Homo sapiens, UniProt P20813); test: Cytochrome P450 inhibition, CYP2B6; format: in vitro ADME; conditions: read-out: IC50 2B6
T3 construct: purchased BD Gentest, Becton-Dickinson (Supersomes); host or cells: insect cells
T3 sequence (P20813 1-491): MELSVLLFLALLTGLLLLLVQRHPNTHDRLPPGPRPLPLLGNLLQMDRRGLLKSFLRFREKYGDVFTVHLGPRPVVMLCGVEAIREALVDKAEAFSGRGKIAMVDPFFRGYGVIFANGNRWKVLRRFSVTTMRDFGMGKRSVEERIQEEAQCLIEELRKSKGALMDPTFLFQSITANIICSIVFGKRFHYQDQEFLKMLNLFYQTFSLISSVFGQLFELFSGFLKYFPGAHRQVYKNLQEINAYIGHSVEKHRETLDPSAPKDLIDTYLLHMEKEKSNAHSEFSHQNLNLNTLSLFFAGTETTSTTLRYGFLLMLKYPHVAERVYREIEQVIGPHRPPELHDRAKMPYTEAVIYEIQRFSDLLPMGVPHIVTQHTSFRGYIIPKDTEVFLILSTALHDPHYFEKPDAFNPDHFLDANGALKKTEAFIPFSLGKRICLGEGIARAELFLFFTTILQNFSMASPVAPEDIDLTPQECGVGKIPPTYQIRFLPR
Source text: as §1, §2, §3

CYP2C8 = target: T4, CYP2C8 (Homo sapiens, UniProt P10632); test: Cytochrome P450 inhibition, CYP2C8; format: in vitro ADME; conditions: read-out: IC50 2C8
T4 construct: purchased BD Gentest, Becton-Dickinson (Supersomes); host or cells: insect cells
T4 sequence (P10632 1-490): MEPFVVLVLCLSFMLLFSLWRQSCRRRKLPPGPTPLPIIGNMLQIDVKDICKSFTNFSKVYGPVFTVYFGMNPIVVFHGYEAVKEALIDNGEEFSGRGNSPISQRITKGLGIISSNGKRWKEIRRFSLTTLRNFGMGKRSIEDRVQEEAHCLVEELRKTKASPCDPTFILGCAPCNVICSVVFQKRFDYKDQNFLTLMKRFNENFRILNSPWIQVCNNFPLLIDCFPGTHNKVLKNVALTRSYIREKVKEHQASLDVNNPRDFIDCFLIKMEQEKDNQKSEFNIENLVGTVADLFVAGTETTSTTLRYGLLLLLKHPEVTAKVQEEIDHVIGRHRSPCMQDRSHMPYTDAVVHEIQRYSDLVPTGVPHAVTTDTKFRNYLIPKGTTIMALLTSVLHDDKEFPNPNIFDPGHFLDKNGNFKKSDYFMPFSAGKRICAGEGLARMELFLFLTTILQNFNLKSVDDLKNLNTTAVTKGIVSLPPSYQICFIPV
Source text: as §1, §2, §3

CYP2C9 = target: T5, CYP2C9 (Homo sapiens, UniProt P11712); test: Cytochrome P450 inhibition, CYP2C9; format: in vitro ADME; conditions: read-out: IC50 2C9
T5 construct: purchased BD Gentest, Becton-Dickinson (Supersomes); host or cells: insect cells
Source text: as §1, §2, §3

CYP2C19 = target: T6, CYP2C19 (Homo sapiens, UniProt P33261); test: Cytochrome P450 inhibition, CYP2C19; format: in vitro ADME; conditions: read-out: IC50 2C19
T6 construct: purchased BD Gentest, Becton-Dickinson (Supersomes); host or cells: insect cells
Source text: as §1, §2, §3

CYP2D6 = target: T7, CYP2D6 (Homo sapiens, UniProt P10635); test: Cytochrome P450 inhibition, CYP2D6; format: in vitro ADME; conditions: read-out: IC50 2D6
T7 construct: purchased BD Gentest, Becton-Dickinson (Supersomes); host or cells: insect cells
Source text: as §1, §2, §3

CYP2E1 = target: T8, CYP2E1 (Homo sapiens, UniProt P05181); test: Cytochrome P450 inhibition, CYP2E1; format: in vitro ADME; conditions: read-out: IC50 2E1
T8 construct: purchased BD Gentest, Becton-Dickinson (Supersomes); host or cells: insect cells
Source text: as §1, §2, §3

CYP3A4 = target: T9, CYP3A4 (Homo sapiens, UniProt P08684); test: Cytochrome P450 inhibition, CYP3A4 (two substrates); format: in vitro ADME
T9 construct: purchased BD Gentest, Becton-Dickinson (Supersomes); host or cells: insect cells
Source text: as §1, §2, §3

T9 sequence (P08684 whole entry): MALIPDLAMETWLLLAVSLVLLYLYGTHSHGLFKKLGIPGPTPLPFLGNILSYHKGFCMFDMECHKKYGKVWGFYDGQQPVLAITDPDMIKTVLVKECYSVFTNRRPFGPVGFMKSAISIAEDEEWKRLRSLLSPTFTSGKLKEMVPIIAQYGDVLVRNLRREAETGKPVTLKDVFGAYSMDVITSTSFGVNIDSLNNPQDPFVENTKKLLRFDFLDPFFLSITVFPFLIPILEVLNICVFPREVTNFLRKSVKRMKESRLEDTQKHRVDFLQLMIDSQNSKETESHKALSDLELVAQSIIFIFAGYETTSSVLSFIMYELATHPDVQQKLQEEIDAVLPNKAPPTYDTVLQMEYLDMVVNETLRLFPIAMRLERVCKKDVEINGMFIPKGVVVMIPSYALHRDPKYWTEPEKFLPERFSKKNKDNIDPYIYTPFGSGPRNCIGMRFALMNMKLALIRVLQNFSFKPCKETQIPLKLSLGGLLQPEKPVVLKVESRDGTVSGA
T8 sequence (P05181 whole entry): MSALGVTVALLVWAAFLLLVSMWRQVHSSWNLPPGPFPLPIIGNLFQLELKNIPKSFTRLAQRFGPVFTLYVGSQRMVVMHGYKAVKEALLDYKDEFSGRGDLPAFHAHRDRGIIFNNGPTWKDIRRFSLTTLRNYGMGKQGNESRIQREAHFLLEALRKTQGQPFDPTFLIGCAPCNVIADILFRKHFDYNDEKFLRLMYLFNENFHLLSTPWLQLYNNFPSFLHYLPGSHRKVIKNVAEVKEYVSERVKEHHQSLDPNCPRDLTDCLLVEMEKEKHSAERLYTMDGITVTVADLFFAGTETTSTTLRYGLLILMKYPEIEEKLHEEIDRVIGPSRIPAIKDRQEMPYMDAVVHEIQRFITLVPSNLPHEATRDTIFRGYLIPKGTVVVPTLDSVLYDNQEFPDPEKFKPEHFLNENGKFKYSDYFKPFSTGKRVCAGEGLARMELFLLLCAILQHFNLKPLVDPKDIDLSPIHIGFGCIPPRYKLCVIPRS
T6 sequence (P33261 whole entry): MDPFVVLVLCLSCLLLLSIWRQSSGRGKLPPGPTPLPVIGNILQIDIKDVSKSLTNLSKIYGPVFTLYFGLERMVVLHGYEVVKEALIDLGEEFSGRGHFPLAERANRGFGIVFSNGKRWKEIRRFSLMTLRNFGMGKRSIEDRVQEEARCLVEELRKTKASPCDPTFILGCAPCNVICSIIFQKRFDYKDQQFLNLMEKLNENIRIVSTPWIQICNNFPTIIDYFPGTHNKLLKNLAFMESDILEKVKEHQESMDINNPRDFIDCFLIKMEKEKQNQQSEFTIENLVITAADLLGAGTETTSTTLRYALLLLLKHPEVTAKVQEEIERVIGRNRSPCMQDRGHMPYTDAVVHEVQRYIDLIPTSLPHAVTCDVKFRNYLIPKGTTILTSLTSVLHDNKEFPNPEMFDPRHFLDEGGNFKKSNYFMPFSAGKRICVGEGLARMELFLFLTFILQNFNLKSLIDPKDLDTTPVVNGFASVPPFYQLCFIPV
T5 sequence (P11712 whole entry): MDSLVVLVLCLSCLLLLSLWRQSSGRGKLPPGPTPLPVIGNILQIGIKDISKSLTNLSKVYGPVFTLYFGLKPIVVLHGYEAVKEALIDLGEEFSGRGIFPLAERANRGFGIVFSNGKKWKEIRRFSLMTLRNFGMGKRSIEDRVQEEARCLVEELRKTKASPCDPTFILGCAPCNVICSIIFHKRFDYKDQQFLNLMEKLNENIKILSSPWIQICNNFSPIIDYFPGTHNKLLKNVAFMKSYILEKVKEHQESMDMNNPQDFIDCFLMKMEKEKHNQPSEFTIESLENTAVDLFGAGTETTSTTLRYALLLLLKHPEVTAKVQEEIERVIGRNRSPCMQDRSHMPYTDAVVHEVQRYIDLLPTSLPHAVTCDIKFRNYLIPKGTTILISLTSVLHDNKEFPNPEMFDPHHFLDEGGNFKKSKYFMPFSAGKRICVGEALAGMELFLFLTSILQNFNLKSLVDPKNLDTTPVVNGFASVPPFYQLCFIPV
Chain of human growth hormone secretagogue receptor (hGHS-R1a) (Q92847 whole entry): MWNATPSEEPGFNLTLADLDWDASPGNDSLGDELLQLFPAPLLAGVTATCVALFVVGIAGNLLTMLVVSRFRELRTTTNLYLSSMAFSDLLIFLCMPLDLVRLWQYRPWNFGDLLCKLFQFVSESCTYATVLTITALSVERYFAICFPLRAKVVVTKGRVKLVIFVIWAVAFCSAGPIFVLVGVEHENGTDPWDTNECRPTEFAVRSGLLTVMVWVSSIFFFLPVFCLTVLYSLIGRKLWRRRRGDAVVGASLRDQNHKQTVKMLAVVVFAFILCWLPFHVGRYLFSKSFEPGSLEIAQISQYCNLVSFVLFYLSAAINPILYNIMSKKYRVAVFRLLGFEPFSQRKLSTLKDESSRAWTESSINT
T7 sequence (P10635 whole entry): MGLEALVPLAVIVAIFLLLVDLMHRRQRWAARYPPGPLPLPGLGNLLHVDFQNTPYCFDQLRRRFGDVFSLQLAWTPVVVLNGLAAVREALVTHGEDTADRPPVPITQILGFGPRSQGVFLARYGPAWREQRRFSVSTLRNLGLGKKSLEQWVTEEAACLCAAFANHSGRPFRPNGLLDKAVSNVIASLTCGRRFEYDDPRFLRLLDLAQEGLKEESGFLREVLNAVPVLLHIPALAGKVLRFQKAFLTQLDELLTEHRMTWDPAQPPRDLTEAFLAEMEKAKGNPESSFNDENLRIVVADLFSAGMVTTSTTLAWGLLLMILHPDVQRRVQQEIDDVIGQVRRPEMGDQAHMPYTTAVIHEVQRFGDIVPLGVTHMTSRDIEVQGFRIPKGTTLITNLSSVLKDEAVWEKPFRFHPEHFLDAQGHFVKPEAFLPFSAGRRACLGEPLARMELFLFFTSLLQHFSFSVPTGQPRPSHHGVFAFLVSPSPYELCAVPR

Ki [1]	IC50 (CYP1A2)	IC50 (CYP2A6)	IC50 (CYP2B6)	IC50 (CYP2C8)	IC50 (CYP2C9)	IC50 (CYP2C19)	IC50 (CYP2D6)	IC50 (CYP2E1)	IC50 (CYP3A4; CYP3A4, substrate BFC, read-out: IC50 3A4 (BFC))	IC50 (CYP3A4; CYP3A4, substrate BQ, read-out: IC50 3A4 (BQ))	Structure (SMILES)	known plasma protein binding values (human plasma)
											CC(=O)CC(c1ccccc1)c1c(O)c2ccccc2oc1=O (stereo not drawn) [warfarin]	~98%
≤ 0.01 µM	> 100 µM	> 100 µM	> 100 µM	> 100 µM	> 100 µM	> 100 µM	> 100 µM	> 100 µM	5.85 µM	1.36 µM	CC(C)C[C@H]1NC(=O)[C@@H](C)N(C)C(=O)[C@H](C2CC2)NCCOc2c(ccc(F)c2F)CCCNC1=O [Compound 816]	
